# Laboratory results: patent US20140017216A1, “PESTICIDAL MIXTURES” (BAYER CROPSCIENCE LP, priority 2011, published 2014)
# Tested on: southern armyworm (Spodoptera eridania)
# Test: Test B.7: control of southern armyworm, leaf-dip on lima bean leaves, larval mortality
# Format: in vivo
# Conditions: single active, neonate larvae, 4 days
# Experimental: For evaluating control of southern armyworm (Spodoptera eridania) the test unit consists of Petri dishes containing eight-day-old Henderson bush lima bean leaves and 10 neonate S. eridania larvae.
# The compounds or mixtures are formulated using a solution containing […] water and 0.05 vol % of a surfactant (Kinetic). Leaves are dipped into different concentrations of formulated compounds or mixtures and allowed to dry. Four replications are performed.
# For experimental mixtures in these tests identical volumes of both mixing partners at the desired concentrations respectively, are mixed together.
# After application, Petri dishes are incubated in the dark at 26±1° C., for 4 days. Larval mortality is visually assessed.
# Metaflumizone at rates of 2.5 and 5.0 kg ai/ha and Streptomyces galbus strain M1064 at rates of 0.69. 1.39, and 2.79 kg ai/ha were tested singly and in combination for control of southern armyworm, Spodoptera eridania in the laboratory.
smiles,measurement,setting,value
"N#Cc1ccc(CC(=NNC(=O)Nc2ccc(OC(F)(F)F)cc2)c2cccc(C(F)(F)F)c2)cc1 (mixture of isomers) [Metaflumizone, metaflumizone]",Observed Mortality,application rate 2.5 kg ai/ha,15.0%
same,Observed Mortality,application rate 5.0 kg ai/ha,47.5%
